In patent US20230065953A1, “NOVEL HETEROARYL-TRIAZOLE COMPOUNDS AS PESTICIDES” (Bayer Aktiengesellschaft, priority 2019, published 2023):

How the values were obtained:
Type in all cases: in vivo
[1] = tested on: fall armyworm larvae (Spodoptera frugiperda); assay: Spodoptera frugiperda spray test (maize leaf sections); conditions: 168 h
Protocol: Spodoptera frugiperda—Spray Test • Solvent: 78.0 parts by weight acetone • 1.5 parts by weight dimethylformamide • Emulsifier: alkylarylpolyglycol ether
(§1) To produce a suitable preparation of active compound, 1 part by weight of active compound is mixed with the stated amount of solvents and is diluted with water, containing an emulsifier concentration of 1000 ppm, to the desired concentration. Further test concentrations are prepared by dilution with emulsifier containing water.
Maize (Zea mays) leaf sections are sprayed with a preparation of the active ingredient of the desired concentration. Once dry, the leaf sections are infested with fall armyworm larvae (Spodoptera frugiperda).
After 7 days mortality in % is determined. 100% means all caterpillars have been killed and 0% means none of the caterpillars have been killed.

[2] = tested on: larvae of the banded cucumber beetle (Diabrotica balteata); assay: Diabrotica balteata spray test; conditions: 168 h, 100 g/ha (=32 μg/well), wheat seeds, after 7 days, read-out: efficacy (seedling growth)
Protocol: Diabrotica Balteata—Spray Test
• Solvent: 78.0 parts by weight of acetone • 1.5 parts by weight of dimethylformamide • Emulsifier: alkylarylpolyglycol ether
Further test concentrations are prepared by dilution with emulsifier containing water.
Soaked wheat seeds (Triticum aestivum) are placed in a multiple well plate filled with agar and some water and are incubated for 1 day to germinate (5 seeds per well). The germinated wheat seeds are sprayed with a test solution containing the desired concentration of the active ingredient. Afterwards each unit is infected with 10-20 larvae of the banded cucumber beetle (Diabrotica balteata).
After 7 days efficacy in % is determined.

[3] = tested on: larvae of the southern green stink bug (Nezara viridula); assay: Nezara viridula spray test; conditions: in Hordeum vulgare, 96 h
Protocol: Nezara viridula—Spray Test • Solvent: 78.0 parts by weight of acetone • 1.5 parts by weight of dimethylformamide • Emulsifier: alkylarylpolyglycol ether
as §1, with “solvent,” for “solvents”, “and the concentrate” for “and”
Barley plants (Hordeum vulgare) are sprayed with a test solution containing the desired concentration of the active ingredient and are infested with larvae of the southern green stink bug (Nezara viridula).
After 4 days mortality in % is determined. 100% means all the stink bugs have been killed; 0% means none of the stink bugs have been killed.

Compound	mortality at 100 g/ha [1] [%]	pest or weed control at 32 µg/disc, 100 g/ha [2] [%]	mortality at 100 g/ha [3] [%]	mortality at 500 g/ha [3] [%]
Cc1nc([C@H](C)NC(=O)c2cc(Cl)cc(C(F)(F)F)c2)n(-c2ncc(C(=O)N(C)C)s2)n1 [I-22]	100	100	–	–
C[C@H](NC(=O)c1cc(F)cc(C#N)c1)c1ncnn1-c1ncc(C#N)s1 [I-41]	100	100	–	–
C[C@H](NC(=O)c1cc(Br)cc(C2(F)CC2)c1)c1ncnn1-c1ncc(C#N)s1 [I-43]	100	100	–	–
C[C@H](NC(=O)c1cc(C(F)F)cc(C2CC2)c1)c1ncnn1-c1ncc(C#N)s1 [I-44]	100	100	–	–
C[C@H](NC(=O)c1cc(Br)cc(C2CC2(F)F)c1)c1ncnn1-c1ncc(C#N)s1 (some centres unmarked) [I-45]	100	100	–	–
C[C@H](NC(=O)c1cc(OC(F)(F)F)cc(S(C)(=O)=O)c1)c1nc(C2CC2)nn1-c1ncc(C#N)s1 [I-48]	100	100	–	–
C[C@H](NC(=O)c1cc(F)cc(C(F)F)c1)c1ncnn1-c1ncc(C#N)s1 [I-49]	100	100	–	–
C[C@H](NC(=O)c1cc(F)cc(OC(F)F)c1)c1ncnn1-c1ncc(C#N)s1 [I-53]	100	100	–	–
C[C@H](NC(=O)c1cc(Br)cc(S(=O)(=O)C(F)(F)F)c1)c1ncnn1-c1ncc(C#N)s1 [I-55]	100	100	–	–
C[C@H](NC(=O)c1cc(C2CC2)cc(S(=O)(=O)C(F)(F)F)c1)c1ncnn1-c1ncc(C#N)s1 [I-56]	100	100	–	–
C[C@H](NC(=O)c1cc(Br)cc(OC(F)(F)F)c1)c1ncnn1-c1ncc(C#N)s1 [I-57]	100	80	–	–
C[C@H](NC(=O)c1cc(Br)cc(C#N)c1)c1ncnn1-c1ncc(C#N)s1 [I-58]	–	100	–	–
C[C@H](NC(=O)c1cc(OC(F)(F)F)cc(S(=O)(=O)C2CC2)c1)c1ncnn1-c1ncc(C#N)s1 [I-61]	100	100	–	–
CCS(=O)(=O)c1cc(OC(F)(F)F)cc(C(=O)N[C@@H](C)c2ncnn2-c2ncc(C#N)s2)c1 [I-62]	100	100	–	–
CC(C)S(=O)(=O)c1cc(OC(F)(F)F)cc(C(=O)N[C@@H](C)c2ncnn2-c2ncc(C#N)s2)c1 [I-63]	–	100	–	–
Cc1nc([C@H](C)NC(=O)c2cc(Cl)cc(C(F)(F)F)c2)n(-c2ncc(C(=O)NC(C)C)s2)n1 [I-68]	100	100	–	–
CC(NC(=O)c1cc(Br)cc(OCC(F)(F)F)c1)c1ncnn1-c1ncc(C#N)s1 (centres unmarked) [I-88]	100	100	–	–
Cc1nc([C@H](C)NC(=O)c2cc(Br)cc(OCC(F)(F)F)c2)n(-c2ncc(C#N)s2)n1 [I-92]	100	100	–	–
C[C@H](NC(=O)c1cc(Cl)cc(C#N)c1)c1ncnn1-c1ncc(C#N)s1 [I-101]	100	100	–	–
C[C@H](NC(=O)c1cc(Cl)cc(S(=O)(=O)C(F)(F)F)c1)c1ncnn1-c1ncc(C(=O)N(C)C)s1 [I-116]	100	100	–	–
C[C@H](NC(=O)c1cc(C(F)F)cc(C(F)F)c1)c1ncnn1-c1ncc(C(=O)N(C)C)s1 [I-117]	–	–	100	100
CNC(=O)c1cnc(-n2ncnc2[C@H](C)NC(=O)c2cc(Cl)cc(C3CC3)c2)s1 [I-122]	100	100	–	–
C[C@H](NC(=O)c1cc(OC(F)F)cc(S(C)(=O)=O)c1)c1nc(C2CC2)nn1-c1ncc(C#N)s1 [I-132]	100	100	–	–
